Source: patent US20230117034A1, “PYRAZOLOTRIAZINES” (Bayer Aktiengesellschaft, priority 2019, published 2023)

Key:
CDK12/CycK = CDK12/CycK (Homo sapiens, UniProt Q9NYV4); experiment: CDK12/CycK high ATP kinase assay (TR-FRET, 2 mM ATP); type: biochemical; details: 2 mM ATP (high ATP); median; read-out: CDK12/CyclinK, 2 mM ATP (high ATP), IC50-[mol/l] (median)
Summary of the method: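 Read-out is TR-FRET (Eu-anti-rabbit IgG, anti-phospho-c-Myc Ser62 antibody, streptavidin-XL665) after EDTA stop. Reaction ran 60 min at 22 °C using 1 µM biotin-peptide and high ATP (2 mM) with roughly 0.75 nM recombinant CDK12/CycK, after 15 min compound pre-binding; normalised emission ratios yield IC50.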

CDK9/CycT1 = molecular target: T1, CDK9/CycT1 (Homo sapiens, UniProt P50750); experiment: CDK9/CycT1 high ATP kinase assay (TR-FRET, 2 mM ATP); type: biochemical; details: 2 mM ATP (high ATP); median; read-out: CDK9/CyclinT1, 2 mM ATP (high ATP), IC50 (median)
T1 construct: Recombinant full-length His-tagged human CDK9 and CycT1; purchased Life Technologies PV4131; host or cells: insect cells
T1 sequence (P50750 whole entry): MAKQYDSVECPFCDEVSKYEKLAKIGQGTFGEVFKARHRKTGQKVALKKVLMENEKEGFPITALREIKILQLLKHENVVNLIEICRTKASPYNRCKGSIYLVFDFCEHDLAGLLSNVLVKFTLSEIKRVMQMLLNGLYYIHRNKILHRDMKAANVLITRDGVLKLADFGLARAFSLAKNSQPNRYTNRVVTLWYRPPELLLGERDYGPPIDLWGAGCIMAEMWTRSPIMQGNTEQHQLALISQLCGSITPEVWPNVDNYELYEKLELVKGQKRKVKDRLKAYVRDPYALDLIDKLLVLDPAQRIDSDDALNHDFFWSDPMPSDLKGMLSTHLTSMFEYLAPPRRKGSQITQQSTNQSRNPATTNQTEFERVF
T1 sequence (O60563 whole entry partner): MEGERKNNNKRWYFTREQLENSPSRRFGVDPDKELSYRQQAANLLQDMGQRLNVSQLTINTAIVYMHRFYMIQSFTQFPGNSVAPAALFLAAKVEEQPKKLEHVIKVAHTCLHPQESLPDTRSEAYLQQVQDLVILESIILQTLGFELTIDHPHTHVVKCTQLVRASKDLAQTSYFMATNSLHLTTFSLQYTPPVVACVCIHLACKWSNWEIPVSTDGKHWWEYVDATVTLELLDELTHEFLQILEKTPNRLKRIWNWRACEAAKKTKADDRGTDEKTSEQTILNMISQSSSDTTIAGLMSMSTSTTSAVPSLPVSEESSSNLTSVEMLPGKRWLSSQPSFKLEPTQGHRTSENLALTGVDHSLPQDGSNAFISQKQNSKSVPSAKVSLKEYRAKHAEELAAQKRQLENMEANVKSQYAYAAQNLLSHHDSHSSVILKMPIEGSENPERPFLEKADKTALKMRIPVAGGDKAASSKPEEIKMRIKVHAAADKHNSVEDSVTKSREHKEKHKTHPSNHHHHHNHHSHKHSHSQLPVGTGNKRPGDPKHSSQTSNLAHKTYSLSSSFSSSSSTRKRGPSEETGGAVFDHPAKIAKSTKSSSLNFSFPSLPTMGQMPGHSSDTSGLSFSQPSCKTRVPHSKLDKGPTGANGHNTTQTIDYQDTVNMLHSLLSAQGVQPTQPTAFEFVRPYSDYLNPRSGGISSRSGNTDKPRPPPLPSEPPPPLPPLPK
Summary of the method: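 Full-length His-tagged human CDK9/CycT1 (insect cell, ~0.5 μg/mL) preincubated 15 min at 22 °C with compound in Tris pH 8.0, MgCl2, DTT buffer before reaction with biotinylated peptide substrate at high ATP (2 mM).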

CDK12/CycK, sequence (Q9NYV4 with tags, fused parts or gaps): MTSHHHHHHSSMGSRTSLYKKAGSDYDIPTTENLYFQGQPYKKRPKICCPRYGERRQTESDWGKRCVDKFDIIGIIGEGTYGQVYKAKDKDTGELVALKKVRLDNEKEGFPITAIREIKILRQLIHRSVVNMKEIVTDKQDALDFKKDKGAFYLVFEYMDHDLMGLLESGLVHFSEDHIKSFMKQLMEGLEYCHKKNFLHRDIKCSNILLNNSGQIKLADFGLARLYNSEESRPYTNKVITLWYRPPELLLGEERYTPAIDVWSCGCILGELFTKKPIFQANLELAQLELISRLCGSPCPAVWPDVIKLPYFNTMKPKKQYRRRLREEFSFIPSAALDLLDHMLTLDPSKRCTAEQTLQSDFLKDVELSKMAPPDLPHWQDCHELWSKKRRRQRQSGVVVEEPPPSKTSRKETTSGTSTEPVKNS
CDK12/CycK, sequence (O75909 1-300 partner limits assumed): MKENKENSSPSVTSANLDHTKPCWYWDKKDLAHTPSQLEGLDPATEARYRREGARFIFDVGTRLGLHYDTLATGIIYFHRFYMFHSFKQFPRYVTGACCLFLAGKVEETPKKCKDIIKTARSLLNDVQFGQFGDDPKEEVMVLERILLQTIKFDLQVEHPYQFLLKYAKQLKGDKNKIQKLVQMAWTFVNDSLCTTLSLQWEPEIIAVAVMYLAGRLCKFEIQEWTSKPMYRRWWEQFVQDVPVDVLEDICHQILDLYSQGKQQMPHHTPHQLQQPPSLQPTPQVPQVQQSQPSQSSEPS

Row | IC50 (CDK12/CycK) | IC50 (CDK9/CycT1) | Structure (SMILES)
1 | 1.71 µM | > 20 µM | Fc1cccc2[nH]c(CNc3nc(N4CCOCC4)nc4c(CC(F)(F)F)cnn34)nc12 [Example 303, N-[(4-fluoro-1H-benzimidazol-2-yl)methyl]-2-(morpholin-4-yl)-8-(2,2,2-trifluoroethyl)pyrazolo[1,5-a][1,3,5]triazin-4-amine]
2 | 6.44 µM | > 20 µM | CC(C)CNc1nc(NCc2nc3ccccc3[nH]2)n2ncc(Br)c2n1 [Example 285, N^4-[(1H-benzimidazol-2-yl)methyl]-8-bromo-N^2-(2-methylpropyl)pyrazolo[1,5-a][1,3,5]triazine-2,4-diamine]
3 | > 18.7 µM | > 20 µM | CC1CN(C)CCN1c1nc(NCc2nc3ccccc3[nH]2)n2ncc(Br)c2n1 (single isomer, unassigned; enantiomer 2) [Example 261, N-(1H-benzimidazol-2-ylmethyl)-8-bromo-2-[(2R or S)-2,4-dimethylpiperazin-1-yl]pyrazolo[1,5-a][1,3,5]triazin-4-amine (Enantiomer 2)]
4 | > 15.8 µM | > 20 µM | N[C@H]1CCN(c2nc(NCc3nc4ccccc4[nH]3)n3ncc(Br)c3n2)C1 [Example 245, 2-[(3S)-3-aminopyrrolidin-1-yl]-N-[(1H-benzimidazol-2-yl)methyl]-8-bromopyrazolo[1,5-a][1,3,5]triazin-4-amine]
5 | 17.4 µM | > 20 µM | CN1CCN(c2nc(NCc3nc4ccccc4[nH]3)n3ncc(C(F)(F)F)c3n2)CC1 [Example 297, N-[(1H-benzimidazol-2-yl)methyl]-2-(4-methylpiperazin-1-yl)-8-(trifluoromethyl)pyrazolo[1,5-a][1,3,5]triazin-4-amine]
6 | > 20 µM | > 20 µM | NC1CCN(c2nc(NCc3nc4ccccc4[nH]3)n3ncc(Br)c3n2)CC1 [Example 256, 2-(4-aminopiperidin-1-yl)-N-[(1H-benzimidazol-2-yl)methyl]-8-bromopyrazolo[1,5-a][1,3,5]triazin-4-amine]
7 | 11.3 µM | > 20 µM | Fc1ccc2[nH]c(CNc3nc(N4CCOCC4)nc4c(C5CC5(F)F)cnn34)nc2c1 (racemic) [Example 286, 8-[(1RS)-2,2-difluorocyclopropyl]-N-[(5-fluoro-1H-benzimidazol-2-yl)methyl]-2-(morpholin-4-yl)pyrazolo[1,5-a][1,3,5]triazin-4-amine]
8 | > 12.9 µM | > 20 µM | CN1CCN(c2nc(NCc3nc4ccccc4[nH]3)n3ncc(C4CC4)c3n2)CC1 [Example 246, N-[(1H-benzimidazol-2-yl)methyl]-8-cyclopropyl-2-(4-methylpiperazin-1-yl)pyrazolo[1,5-a][1,3,5]triazin-4-amine]
9 | 11.3 µM | > 20 µM | N[C@@H]1CCN(c2nc(NCc3nc4ccccc4[nH]3)n3ncc(Br)c3n2)C1 [Example 250, 2-[(3R)-3-aminopyrrolidin-1-yl]-N-[(1H-benzimidazol-2-yl)methyl]-8-bromopyrazolo[1,5-a][1,3,5]triazin-4-amine]
10 | 1.18 µM | > 20 µM | Clc1cc2nc(CNc3nc(N4CCOCC4)nc4c(C5CC5)cnn34)[nH]c2cc1Cl [Example 301, 8-cyclopropyl-N-[(5,6-dichloro-1H-benzimidazol-2-yl)methyl]-2-(morpholin-4-yl)pyrazolo[1,5-a][1,3,5]triazin-4-amine]
11 | 9.92 µM | > 20 µM | Fc1ccc2[nH]c(CNc3nc(N4CCOCC4)nc4c(C5CC5(F)F)cnn34)nc2c1 (single isomer, unassigned) [Example 314, 8-[(1R or S)-2,2-difluorocyclopropyl]-N-[(5-fluoro-1H-benzimidazol-2-yl)methyl]-2-(morpholin-4-yl)pyrazolo[1,5-a][1,3,5]triazin-4-amine]
12 | 2.13 µM | > 20 µM | Fc1ccc2[nH]c(CNc3nc(N4CCOCC4)nc4c(CC(F)(F)F)cnn34)nc2c1F [Example 268, N-[(4,5-difluoro-1H-benzimidazol-2-yl)methyl]-2-(morpholin-4-yl)-8-(2,2,2-trifluoroethyl)pyrazolo[1,5-a][1,3,5]triazin-4-amine]
13 | 6.89 µM | > 20 µM | c1ccc2[nH]c(CNc3nc(N4CCOCC4)nc4c(C5CCC5)cnn34)nc2c1 [Example 263, N-[(1H-benzimidazol-2-yl)methyl]-8-cyclobutyl-2-(morpholin-4-yl)pyrazolo[1,5-a][1,3,5]triazin-4-amine]
14 | 2.23 µM | > 20 µM | Fc1ccc2[nH]c(CNc3nc(N4CCOCC4)nc4c(C5CCC5)cnn34)nc2c1F [Example 264, 8-cyclobutyl-N-[(4,5-difluoro-1H-benzimidazol-2-yl)methyl]-2-(morpholin-4-yl)pyrazolo[1,5-a][1,3,5]triazin-4-amine]
15 | 12.5 µM | > 20 µM | OCC1CN(c2nc(NCc3nc4ccccc4[nH]3)n3ncc(Br)c3n2)C1 [Example 304, [1-(4-{[(1H-benzimidazol-2-yl)methyl]amino}-8-bromopyrazolo[1,5-a][1,3,5]triazin-2-yl)azetidin-3-yl]methanol]
16 | 0.0395 µM | > 20 µM | Fc1cccc2[nH]c(CNc3nc(N4CCOCC4)nc4c(C(F)(F)F)cnn34)nc12 [Example 274, N-[(4-fluoro-1H-benzimidazol-2-yl)methyl]-2-(morpholin-4-yl)-8-(trifluoromethyl)pyrazolo[1,5-a][1,3,5]triazin-4-amine]
17 | > 20 µM | > 20 µM | CN[C@H]1CCN(c2nc(NCc3nc4ccccc4[nH]3)n3ncc(Br)c3n2)C1 [Example 252, N-[(1H-benzimidazol-2-yl)methyl]-8-bromo-2-[(3S)-3-(methylamino)pyrrolidin-1-yl]pyrazolo[1,5-a][1,3,5]triazin-4-amine]
18 | > 20 µM | > 20 µM | Brc1cnn2c(NCc3nc4ccccc4[nH]3)nc(N3C[C@H]4CN[C@H]4C3)nc12.O=C(O)C(F)(F)F [Example 255, trifluoroacetic acid-N-[(1H-benzimidazol-2-yl)methyl]-8-bromo-2-[(1R,5R)-3,6-diazabicyclo[3.2.0]heptan-3-yl]pyrazolo[1,5-a][1,3,5]triazin-4-amine (1/1)]
19 | 4.69 µM | > 20 µM | NC12CC1CN(c1nc(NCc3nc4ccccc4[nH]3)n3ncc(Br)c3n1)C2 (stereo not drawn) [Example 258, 2-(1-amino-3-azabicyclo[3.1.0]hexan-3-yl)-N-(1H-benzimidazol-2-ylmethyl)-8-bromo-pyrazolo[1,5-a][1,3,5]triazin-4-amine]
20 | 0.666 µM | > 6.25 µM | CN(CC(C)(C)O)c1nc(NCc2nc3c(F)c(F)ccc3[nH]2)n2ncc(C3CC3)c2n1 [Example 292, 1-[(8-cyclopropyl-4-{[(4,5-difluoro-1H-benzimidazol-2-yl)methyl]amino}pyrazolo[1,5-a][1,3,5]triazin-2-yl)(methyl)amino]-2-methylpropan-2-ol]
21 | > 5.71 µM | > 20 µM | Fc1ccc2[nH]c(CNc3nc(N4CCOCC4)nc4c(C5CCCC5)cnn34)nc2c1F [Example 262, 8-cyclopentyl-N-[(4,5-difluoro-1H-benzimidazol-2-yl)methyl]-2-(morpholin-4-yl)pyrazolo[1,5-a][1,3,5]triazin-4-amine]
22 | > 8.95 µM | > 20 µM | CC1(O)CCN(c2nc(NCc3nc4ccccc4[nH]3)n3ncc(Br)c3n2)C1 (single isomer, unassigned) [Example 282, (3R or S)-1-(4-{[(1H-benzimidazol-2-yl)methyl]amino}-8-bromopyrazolo[1,5-a][1,3,5]triazin-2-yl)-3-methylpyrrolidin-3-ol]
23 | 1.56 µM | 3.24 µM | Brc1cnn2c(NCc3ncc(-c4ccccc4)[nH]3)nc(N3CCOCC3)nc12 [Example 23, 8-bromo-2-(morpholin-4-yl)-N-[(5-phenyl-1H-imidazol-2-yl)methyl]pyrazolo[1,5-a][1,3,5]triazin-4-amine]
24 | 0.731 µM | 5.78 µM | Fc1ccc2[nH]c(CNc3nc(N4CCOCC4)nc4c(Br)cnn34)nc2c1F [Example 25, 8-bromo-N-[(4,5-difluoro-1H-benzimidazol-2-yl)methyl]-2-(morpholin-4-yl)pyrazolo[1,5-a][1,3,5]triazin-4-amine]
25 | 18.3 µM | > 20 µM | Brc1cnn2c(NCc3nc4ccccc4[nH]3)nc(N3C[C@H]4CNC[C@H]4C3)nc12 [Example 283, N-[(1H-benzimidazol-2-yl)methyl]-8-bromo-2-[(3aR,6aS)-hexahydropyrrolo[3,4-c]pyrrol-2(1H)-yl]pyrazolo[1,5-a][1,3,5]triazin-4-amine]
26 | 1.36 µM | > 20 µM | Fc1cc2nc(CNc3nc(N4CCOCC4)nc4c(C5CC5)cnn34)[nH]c2cc1F [Example 318, 8-cyclopropyl-N-[(5,6-difluoro-1H-benzimidazol-2-yl)methyl]-2-(morpholin-4-yl)pyrazolo[1,5-a][1,3,5]triazin-4-amine]

Row | Structure (SMILES) | IC50 (CDK12/CycK) | IC50 (CDK9/CycT1)
27 | Fc1cccc2[nH]c(CNc3nc(N4C[C@H]5CC[C@@H](C4)N5)nc4c(C5CC5)cnn34)nc12 [Example 296, 8-cyclopropyl-2-[(1R,5S)-3,8-diazabicyclo[3.2.1]octan-3-yl]-N-[(4-fluoro-1H-benzimidazol-2-yl)methyl]pyrazolo[1,5-a][1,3,5]triazin-4-amine] | 2.48 µM | > 20 µM
